Reference: ChEMBL document CHEMBL5214938, “Design, synthesis and biological evaluation of pteridine-7(8H)-one derivatives as potent and selective CDK4/6 inhibitors” (Bioorg Med Chem Lett, 2022)
Blank lines part the entries; values can stand above or below the compound they belong to.

What was measured:
[1] = target: Cyclin-dependent kinase 4/cyclin D1 (Homo sapiens, UniProt P11802); test: Inhibition of CDK4/cyclin D1 (unknown origin); assay type: protein-complex assay
CDK6/cyclin D1 = CDK6/cyclin D1 (Homo sapiens, UniProt Q00534); test: Inhibition of CDK6/cyclin D1 (unknown origin); assay type: protein-complex assay
Sequence of CDK6/cyclin D1 (P24385 whole entry): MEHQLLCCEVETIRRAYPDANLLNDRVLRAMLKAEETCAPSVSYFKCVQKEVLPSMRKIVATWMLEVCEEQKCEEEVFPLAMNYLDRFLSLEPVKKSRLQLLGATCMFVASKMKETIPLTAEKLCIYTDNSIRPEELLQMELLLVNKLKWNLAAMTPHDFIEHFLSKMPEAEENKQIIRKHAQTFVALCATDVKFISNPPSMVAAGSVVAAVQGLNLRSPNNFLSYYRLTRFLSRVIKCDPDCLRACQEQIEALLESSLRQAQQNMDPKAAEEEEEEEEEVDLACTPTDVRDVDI
Sequence of CDK6/cyclin D1 (Q00534 whole entry): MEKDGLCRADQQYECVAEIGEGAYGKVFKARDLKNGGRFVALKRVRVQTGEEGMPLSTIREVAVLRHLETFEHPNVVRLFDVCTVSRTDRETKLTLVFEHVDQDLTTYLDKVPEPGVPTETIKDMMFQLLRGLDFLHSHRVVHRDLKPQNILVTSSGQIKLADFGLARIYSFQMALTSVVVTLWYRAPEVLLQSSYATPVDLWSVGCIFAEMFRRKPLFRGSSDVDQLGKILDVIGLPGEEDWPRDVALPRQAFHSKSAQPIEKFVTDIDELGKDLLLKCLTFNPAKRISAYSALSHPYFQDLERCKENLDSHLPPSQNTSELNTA

[2] = Inhibition of CDK1/cyclin B (unknown origin); design: species or system Homo sapiens
[3] = target: Cyclin-dependent kinase 2/cyclin E1 (Homo sapiens, UniProt P24941); test: Inhibition of CDK2/cyclin E1 (unknown origin); assay type: protein-complex assay
CDK7/Cyclin H/MNAT1 = CDK7/Cyclin H/MNAT1 (Homo sapiens, UniProt P50613); test: Inhibition of CDK7/cyclin H/MAT1 (unknown origin); assay type: protein-complex assay
Sequence of CDK7/Cyclin H/MNAT1 (P51946 whole entry): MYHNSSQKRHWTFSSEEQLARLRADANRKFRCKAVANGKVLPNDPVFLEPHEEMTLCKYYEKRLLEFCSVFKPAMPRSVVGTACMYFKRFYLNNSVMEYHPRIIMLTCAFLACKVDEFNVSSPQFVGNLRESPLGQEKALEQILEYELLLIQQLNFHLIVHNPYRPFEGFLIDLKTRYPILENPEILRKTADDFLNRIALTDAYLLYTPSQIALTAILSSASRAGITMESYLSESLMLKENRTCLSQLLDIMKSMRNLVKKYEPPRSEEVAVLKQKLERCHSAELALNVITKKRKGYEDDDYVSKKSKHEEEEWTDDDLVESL
Sequence of CDK7/Cyclin H/MNAT1 (P50613 whole entry): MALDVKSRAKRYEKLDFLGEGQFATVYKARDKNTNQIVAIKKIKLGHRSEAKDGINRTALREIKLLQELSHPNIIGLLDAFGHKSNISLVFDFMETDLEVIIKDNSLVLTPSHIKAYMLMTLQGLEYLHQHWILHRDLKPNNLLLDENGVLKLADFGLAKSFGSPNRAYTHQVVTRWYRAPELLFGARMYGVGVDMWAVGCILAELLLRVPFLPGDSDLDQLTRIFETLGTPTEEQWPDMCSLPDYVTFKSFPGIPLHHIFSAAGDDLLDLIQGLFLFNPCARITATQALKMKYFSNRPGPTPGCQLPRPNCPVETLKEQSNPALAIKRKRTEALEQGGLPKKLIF
Sequence of CDK7/Cyclin H/MNAT1 (P51948 whole entry, further chain): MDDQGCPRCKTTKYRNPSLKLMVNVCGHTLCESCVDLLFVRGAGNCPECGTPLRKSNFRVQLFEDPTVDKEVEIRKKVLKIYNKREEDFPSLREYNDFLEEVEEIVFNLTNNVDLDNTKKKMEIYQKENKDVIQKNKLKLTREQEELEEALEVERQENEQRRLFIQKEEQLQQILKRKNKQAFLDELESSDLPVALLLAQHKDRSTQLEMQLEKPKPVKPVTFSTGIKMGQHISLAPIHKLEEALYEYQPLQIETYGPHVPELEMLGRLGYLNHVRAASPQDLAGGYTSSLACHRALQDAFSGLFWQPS

CDK9/cyclin T1 = CDK9/cyclin T1 (Homo sapiens, UniProt P50750); test: Inhibition of CDK9/cyclin T1 (unknown origin); assay type: protein-complex assay
Sequence of CDK9/cyclin T1 (O60563 whole entry): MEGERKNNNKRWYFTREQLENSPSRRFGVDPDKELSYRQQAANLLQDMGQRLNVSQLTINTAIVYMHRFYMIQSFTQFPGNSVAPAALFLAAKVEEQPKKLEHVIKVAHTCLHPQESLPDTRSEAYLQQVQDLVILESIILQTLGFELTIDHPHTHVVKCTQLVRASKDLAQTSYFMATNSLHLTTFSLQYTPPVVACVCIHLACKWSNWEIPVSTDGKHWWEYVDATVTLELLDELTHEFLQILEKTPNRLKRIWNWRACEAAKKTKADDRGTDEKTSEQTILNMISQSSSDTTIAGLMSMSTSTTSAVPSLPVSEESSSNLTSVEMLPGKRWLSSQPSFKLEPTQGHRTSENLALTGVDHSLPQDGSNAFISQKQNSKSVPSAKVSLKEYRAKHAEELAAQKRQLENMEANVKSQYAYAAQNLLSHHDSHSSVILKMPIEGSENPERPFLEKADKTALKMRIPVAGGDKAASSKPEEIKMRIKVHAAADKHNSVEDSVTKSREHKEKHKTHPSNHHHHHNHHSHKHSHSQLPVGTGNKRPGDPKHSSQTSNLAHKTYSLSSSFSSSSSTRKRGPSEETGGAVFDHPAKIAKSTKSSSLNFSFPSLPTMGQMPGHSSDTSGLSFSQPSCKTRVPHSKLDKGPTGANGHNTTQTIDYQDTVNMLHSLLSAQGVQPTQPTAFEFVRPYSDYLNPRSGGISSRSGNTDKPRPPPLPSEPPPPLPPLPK
Sequence of CDK9/cyclin T1 (P50750 whole entry): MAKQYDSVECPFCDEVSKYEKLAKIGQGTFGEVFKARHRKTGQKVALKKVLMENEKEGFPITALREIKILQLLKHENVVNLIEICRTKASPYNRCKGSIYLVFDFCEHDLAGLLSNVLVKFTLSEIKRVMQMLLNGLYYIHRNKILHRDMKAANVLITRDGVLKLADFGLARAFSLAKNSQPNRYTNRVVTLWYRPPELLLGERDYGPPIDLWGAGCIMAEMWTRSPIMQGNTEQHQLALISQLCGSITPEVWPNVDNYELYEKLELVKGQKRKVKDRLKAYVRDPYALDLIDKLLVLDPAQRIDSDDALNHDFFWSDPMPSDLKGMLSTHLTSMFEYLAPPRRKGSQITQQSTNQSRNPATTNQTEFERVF

MDA-MB-231 [4] = test: Antiproliferative activity against human MDA-MB-231 cells assessed as growth inhibition by CCK-8 assay; assay type: functional, cell-based
HCT-116 [5] = test: Antiproliferative activity against human HCT-116 cells assessed as growth inhibition by CCK-8 assay; assay type: functional, cell-based
HT-29 [6] = test: Antiproliferative activity against human HT-29 cells assessed as growth inhibition by CCK-8 assay; assay type: functional, cell-based
A549 = test: Antiproliferative activity against human A549 cells assessed as growth inhibition by CCK-8 assay; assay type: functional, cell-based
MDA-MB-231 [7] = test: Induction of apoptosis in human MDA-MB-231 cells assessed as necrotic cells at 1 uM by flow cytometry (Rvb=4.37%); assay type: functional
MDA-MB-231 [8] = test: Induction of apoptosis in human MDA-MB-231 cells assessed as early apoptotic cells at 1 uM by flow cytometry (Rvb=2.93%); assay type: functional
MDA-MB-231 [9] = test: Induction of apoptosis in human MDA-MB-231 cells assessed as late apoptotic cells at 1 uM by flow cytometry (Rvb=0.72%); assay type: functional
MDA-MB-231 [10] = test: Induction of apoptosis in human MDA-MB-231 cells assessed as viable cells at 1 uM by flow cytometry (Rvb=92.08%); assay type: functional; settings: read-out: Activity
MDA-MB-231 [11] = test: Induction of apoptosis in human MDA-MB-231 cells assessed as necrotic cells at 5 uM by flow cytometry (Rvb=4.37%); assay type: functional
MDA-MB-231 [12] = test: Induction of apoptosis in human MDA-MB-231 cells assessed as early apoptotic cells at 5 uM by flow cytometry (Rvb=2.93%); assay type: functional
MDA-MB-231 [13] = test: Induction of apoptosis in human MDA-MB-231 cells assessed as late apoptotic cells at 5 uM by flow cytometry (Rvb=0.72%); assay type: functional
MDA-MB-231 [14] = test: Induction of apoptosis in human MDA-MB-231 cells assessed as viable cells at 5 uM by flow cytometry (Rvb=92.08%); assay type: functional; settings: read-out: Activity
HCT-116 [15] = test: Induction of apoptosis in human HCT-116 cells assessed as necrotic cells at 1 uM by flow cytometry (Rvb=1.57%); assay type: functional
HCT-116 [16] = test: Induction of apoptosis in human HCT-116 cells assessed as early apoptotic cells at 1 uM by flow cytometry (Rvb=6.90%); assay type: functional
HCT-116 [17] = test: Induction of apoptosis in human HCT-116 cells assessed as late apoptotic cells at 1 uM by flow cytometry (Rvb=4.92%); assay type: functional
HCT-116 [18] = test: Induction of apoptosis in human HCT-116 cells assessed as viable cells at 1 uM by flow cytometry (Rvb=86.61%); assay type: functional; settings: read-out: Activity
HCT-116 [19] = test: Induction of apoptosis in human HCT-116 cells assessed as necrotic cells at 5 uM by flow cytometry (Rvb=1.57%); assay type: functional
HCT-116 [20] = test: Induction of apoptosis in human HCT-116 cells assessed as early apoptotic cells at 5 uM by flow cytometry (Rvb=6.90%); assay type: functional
HCT-116 [21] = test: Induction of apoptosis in human HCT-116 cells assessed as late apoptotic cells at 5 uM by flow cytometry (Rvb=4.92%); assay type: functional
HCT-116 [22] = test: Induction of apoptosis in human HCT-116 cells assessed as viable cells at 5 uM by flow cytometry (Rvb=86.61%); assay type: functional; settings: read-out: Activity
HT-29 [23] = test: Induction of apoptosis in human HT-29 cells assessed as necrotic cells at 1 uM by flow cytometry (Rvb=2.35%); assay type: functional
HT-29 [24] = test: Induction of apoptosis in human HT-29 cells assessed as early apoptotic cells at 1 uM by flow cytometry (Rvb=8.68%); assay type: functional
HT-29 [25] = test: Induction of apoptosis in human HT-29 cells assessed as late apoptotic cells at 1 uM by flow cytometry (Rvb=5.03%); assay type: functional
HT-29 [26] = test: Induction of apoptosis in human HT-29 cells assessed as viable cells at 1 uM by flow cytometry (Rvb=83.94%); assay type: functional; settings: read-out: Activity
HT-29 [27] = test: Induction of apoptosis in human HT-29 cells assessed as necrotic cells at 5 uM by flow cytometry (Rvb=2.35%); assay type: functional
HT-29 [28] = test: Induction of apoptosis in human HT-29 cells assessed as early apoptotic cells at 5 uM by flow cytometry (Rvb=8.68%); assay type: functional
HT-29 [29] = test: Induction of apoptosis in human HT-29 cells assessed as late apoptotic cells at 5 uM by flow cytometry (Rvb=5.03%); assay type: functional
HT-29 [30] = test: Induction of apoptosis in human HT-29 cells assessed as viable cells at 5 uM by flow cytometry (Rvb=83.94%); assay type: functional; settings: read-out: Activity

Sequence of Cyclin-dependent kinase 4/cyclin D1 (P11802 whole entry): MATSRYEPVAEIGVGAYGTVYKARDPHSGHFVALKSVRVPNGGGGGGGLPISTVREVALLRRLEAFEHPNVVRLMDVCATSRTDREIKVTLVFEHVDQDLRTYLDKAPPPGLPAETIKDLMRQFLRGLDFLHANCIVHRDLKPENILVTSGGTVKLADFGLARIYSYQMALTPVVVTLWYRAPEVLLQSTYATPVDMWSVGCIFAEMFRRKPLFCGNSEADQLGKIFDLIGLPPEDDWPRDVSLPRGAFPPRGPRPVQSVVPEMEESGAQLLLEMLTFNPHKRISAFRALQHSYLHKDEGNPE
Sequence of Cyclin-dependent kinase 4/cyclin D1 (P24385 whole entry, further chain): as the sequence (P24385 whole entry) above

- IC50 [1]: 16.7 nM
- IC50 (CDK6/cyclin D1): 30.5 nM
- IC50 [2]: > 10000 nM
- IC50 [3]: 7940 nM
- IC50 (CDK7/Cyclin H/MNAT1): > 10000 nM
- IC50 (CDK9/cyclin T1): 8040 nM
- IC50 (MDA-MB-231 [4]): 1900 nM
- IC50 (HCT-116 [5]): 1900 nM
- IC50 (HT-29 [6]): 4000 nM
- IC50 (A549): 9200 nM
SMILES: CCN1CCN(c2ccc(Nc3ncc4nc(C(C)=O)c(=O)n(C5CCCC5)c4n3)cc2)CC1
- Activity (MDA-MB-231 [7]): 4.16%
- Activity (MDA-MB-231 [8]): 3.21%
- Activity (MDA-MB-231 [9]): 0.86%
- viability at 1 µM (MDA-MB-231 [10]): 91.8%
- Activity (MDA-MB-231 [11]): 3.55%
- Activity (MDA-MB-231 [12]): 6.67%
- Activity (MDA-MB-231 [13]): 1.75%
- viability at 5 µM (MDA-MB-231 [14]): 88%
- Activity (HCT-116 [15]): 0.57%
- Activity (HCT-116 [16]): 9.54%
- Activity (HCT-116 [17]): 8.42%
- viability at 1 µM (HCT-116 [18]): 81.5%
- Activity (HCT-116 [19]): 2.16%
- Activity (HCT-116 [20]): 14.39%
- Activity (HCT-116 [21]): 13.39%
- viability at 5 µM (HCT-116 [22]): 70.2%
- Activity (HT-29 [23]): 1.21%
- Activity (HT-29 [24]): 15.39%
- Activity (HT-29 [25]): 12.67%
- viability at 1 µM (HT-29 [26]): 70.7%
- Activity (HT-29 [27]): 0.99%
- Activity (HT-29 [28]): 14.86%
- Activity (HT-29 [29]): 15.42%
- viability at 5 µM (HT-29 [30]): 68.7%

- IC50 [1]: 64.9 nM
- IC50 (CDK6/cyclin D1): 564 nM
SMILES: CC(=O)c1nc2cnc(Nc3ccc(N4CCCCC4)cc3)nc2n(C2CCCC2)c1=O

- IC50 [1]: 36.6 nM
- IC50 (CDK6/cyclin D1): 53.4 nM
- IC50 [2]: > 10000 nM
- IC50 [3]: > 10000 nM
- IC50 (CDK7/Cyclin H/MNAT1): > 10000 nM
- IC50 (CDK9/cyclin T1): > 10000 nM
- IC50 (MDA-MB-231 [4]): 2200 nM
- IC50 (HCT-116 [5]): 2400 nM
- IC50 (HT-29 [6]): 1500 nM
- IC50 (A549): 3600 nM
SMILES: CC(=O)c1nc2cnc(Nc3ccc(N4CCN(C)CC4)cc3)nc2n(C2CCCC2)c1=O

- IC50 [1]: 74.4 nM
- IC50 (CDK6/cyclin D1): 168 nM
SMILES: CC(=O)c1nc2cnc(Nc3ccc(N4CCOCC4)cc3)nc2n(C2CCCC2)c1=O

- IC50 [1]: 7890 nM
- IC50 (CDK6/cyclin D1): 7080 nM
SMILES: CCN1CCN(c2ccc(Nc3ncc4nc(C(C)=O)c(=O)n(C5CCCC5)c4n3)c(N)c2)CC1

- IC50 [1]: 368 nM
- IC50 (CDK6/cyclin D1): > 10000 nM
SMILES: CC(=O)c1nc2cnc(Nc3ccc(N4CCCC4)cc3)nc2n(C2CCCC2)c1=O

Second part, the compound before the results:

SMILES: CN[C@@H]1C[C@H]2O[C@@](C)([C@@H]1OC)n1c3ccccc3c3c4c(c5c6ccccc6n2c5c31)C(=O)NC4 [STAUROSPORINE]
- IC50 [2]: 6.6 nM

SMILES: CC(=O)c1nc2cnc(Nc3ccc(N4CCC(N5CCN(C)CC5)CC4)cc3)nc2n(C2CCCC2)c1=O
- IC50 [1]: 30.1 nM
- IC50 (CDK6/cyclin D1): 48 nM

SMILES: COc1cc(N2CCN(C)CC2)ccc1Nc1ncc2nc(C(C)=O)c(=O)n(C3CCCC3)c2n1
- IC50 [1]: 4480 nM
- IC50 (CDK6/cyclin D1): 4740 nM

SMILES: O=c1c(-c2ccco2)nc2cnc(Nc3ccc(N4CCOCC4)cc3)nc2n1C1CCCC1
- IC50 [1]: > 10000 nM
- IC50 (CDK6/cyclin D1): > 10000 nM

SMILES: CCN1CCN(c2ccc(Nc3ncc4nc(C(C)=O)c(=O)n(C5CCCC5)c4n3)c(CO)c2)CC1
- IC50 [1]: 110 nM
- IC50 (CDK6/cyclin D1): 1210 nM

SMILES: CCN1CCN(c2ccc(Nc3ncc4nc(-c5ccco5)c(=O)n(C5CCCC5)c4n3)cc2)CC1
- IC50 [1]: 236 nM
- IC50 (CDK6/cyclin D1): 940 nM

SMILES: CC(=O)c1nc2cnc(Nc3ccc(N4CCN(C5CCCC5)CC4)cc3)nc2n(C2CCCC2)c1=O
- IC50 [1]: 36.3 nM
- IC50 (CDK6/cyclin D1): 138 nM

SMILES: CC(=O)c1c(C)c2cnc(Nc3ccc(N4CCNCC4)cn3)nc2n(C2CCCC2)c1=O [PALBOCICLIB]
- IC50 (HCT-116 [5]): > 10000 nM
- IC50 (HT-29 [6]): 9300 nM
- IC50 (A549): > 10000 nM
